Test results from PMC8296708, “The pan HDAC inhibitor Givinostat improves muscle function and histological parameters in two Duchenne muscular dystrophy murine models expressing different haplotypes of the LTBP4 gene” (Skeletal Muscle, 2021).

Experiments:
Type in all cases: in vivo, mouse (D2.B10-Dmd^mdx/J)
D2.B10 mice [1] = experiment: Muscle fibrosis by Sirius Red staining in D2.B10 mice; settings: for Reduction of fibrosis in DIA: T8; for Reduction of fibrosis in TA: T8, Givinostat 37.5 mg/kg, steroids 1 mg/kg, vs vehicle; for Effect on fibrosis in GAS: T16; for Efficacy on fibrosis in DIA: T16, Givinostat 37.5 mg/kg, prednisone
Source text: (§1) Tibialis anterior (TA), gastrocnemius (GAS), DIA, and heart were collected from mice maintained under isoflurane anesthesia and sacrificed by cervical dislocation. These muscles were collected from C57BL/10J wt and mdx (5 mice/group) at the end of treatments and from DBA/2J wt and D2.B10 mice (5 mice/group) at two different time points to be examined by a pathologist (for more details see Additional Table 1). Due to the results obtained by the functional tests, muscles from only some treatment groups were analyzed in both DMD models (see Additional Table 1). All the collected muscles were fixed in 10% buffered formalin solution (Bio-optica, Milan, Italy) at + 4 °C for at least 48 h. After fixation, muscular samples were transversely trimmed, caged, and paraffin embedded overnight with an Automated Vacuum Tissue Processor Floor (ETP, Histo-Line Laboratories) and included in paraffin blocks. Serial transverse cross-sections (4 μm thick) were cut with a microtome (Leica RM 2255), collected onto uncoated glass slides, and stained using a standard protocol for hematoxylin and eosin (Mayer hematoxylin & Aqueous G Eosin 1%, Bio-Optica) and Sirius Red staining (Direct Red 80, Sigma-Aldrich). For the image analysis and quantitation, hematoxylin and eosin- and Sirius Red-stained slides were examined with an Olympus BX51 light microscope. From each sample, 1 to 3 random microphotographs at the magnification of × 4 and × 10 (TA, GAS and heart) or × 20 (DIA) were collected using Image-Pro Plus system. The digital images were processed by a pathologist using ImageJ software (U.S. National Institutes of Health, Bethesda, MD, USA). To quantify CSA and centralized nuclei (%) on hematoxylin and eosin-stained sections, one hundred myofibers were manually measured for each muscle/mouse using a tablet pen (Wacom Intruos) and analyzed by the ImageJ software after a linear calibration of 150 μm. The fibrotic area, corresponding to the area stained in red, was compared to the total area of the tissue section, and the results were expressed as percentage fibrosis. The % of fibrosis of muscles in the different treatment groups was expressed by averaging the three values obtained from each muscle.

D2.B10 mice [2] = experiment: Myofiber cross-sectional area (CSA) in D2.B10 mice; settings: for TA CSA / GAS CSA: D2.B10 mice, Givinostat 37.5 mg/kg
Source text: as §1
The deciles of the CSA of the animals treated with Givinostat at the different doses were plotted against the corresponding deciles of the vehicle-treated mice and a linear regression analysis was performed on natural [CSAtreated = b CSAcontrol + a] and log_transformed data [log(CSAtreated) = log(a) + b log(CSAcontrol)]. […] In case of untransformed data, this means that the effect of Givinostat treatment is additive and any decile of the CSAtreatment distribution may be derived from the control data summing up a constant quantity (S) to each fiber AREA of the control group (CSAtreated = CSAcontrol + S). In case of log_transformed data, the effect of Givinostat has to be considered as a multiplicative factor on any generic fiber of the muscle under evaluation, whose size, after the treatment, results K times larger in comparison to the control group value (CSAtreated […] = K × CSAcontrol, with K = 10^a). The S or K parameter values were then determined through an iterative estimation procedure, based on sum of squares (SSQ) minimization, directly comparing the CSA distribution observed in treated animals with that obtained summing up the S value or multiplying by K the CSA values of the control group.

D2.B10 mice [3] = experiment: Centralized nuclei (%) in muscles of D2.B10 mice; settings: Givinostat 37.5 mg/kg; for Nuclear centralization in TA: prednisone (vehicle 21.2 ± 1.0); for Nuclear centralization in GAS: prednisone (vehicle 25.1 ± 1.5)
Source text: as §1

[4] = Body weight of D2.B10 mice
Procedure: In the efficacy studies, Givinostat powder (ITF2357) was suspended in 0.5% methylcellulose (Sigma-Aldrich) and administered p.o. (by gavage) at the doses of 0.1, 0.3, 1, 5, 10, 25, and 37.5 mg/kg qdx5x15weeks (administration volume per mouse: 10 mL/kg) in mdx mice (see Additional Figure 1A). Vehicle-treated mdx mice received 0.5% methylcellulose suspension. Givinostat suspension was stored at + 4 °C, and it was freshly prepared every 7 days. Probably due to the impairment of their tongue and masticatory muscles, the oral gavage procedure turned out to be difficult to perform, and chronic treatment of D2.B10 mice by this route was considered to bear a high risk of damaging the esophagus. For this reason, Givinostat was administered in the drinking water. Givinostat was dissolved in filtered tap water and was administered in drinking water (throughout 24 h) for 105 days at the dose of 1, 5, 10, and 37.5 mg/kg/day, according to a daily estimate of water consumption of 4 ml/mouse/day. Water consumption was weekly monitored throughout the entire duration of the study weighing the bottle of each cage (maximum 4 mice per cage). Prednisone and Deflazacort powder (Sigma-Aldrich) was dissolved in 2% DMSO (Sigma-Aldrich) and diluted in sterile saline on injection days. Both drugs were administered weekly (for 15 weeks) by i.p. injection at the dose of 1 mg/kg in a volume of 10 mL/kg. […] All mice were monitored daily and tolerability was evaluated on the basis of BW and clinical signs.
In both efficacy studies, the effectiveness of treatments was evaluated every week by measuring the forelimb strength by a grip strength meter (Ugo Basile SRL, Italy). BW of mdx (see Additional Figure 2) and D2.B10 mice (see Additional Figure 3) was also measured in order to normalize the absolute grip strength of each mouse with respect to its BW. […] The highest recorded value of maximal normalized strength (FNmax) obtained for each mouse at all the time points (from T0 to T15) was used for further analysis.

[5] = T8, prednisone 1 mg/kg (vehicle 600)
[6] = T8, prednisone 1 mg/kg (vehicle 1050)
[7] = T16, prednisone 1 mg/kg (vehicle 300)

## CCN(CC)Cc1ccc2cc(COC(=O)Nc3ccc(C(=O)NO)cc3)ccc2c1 [Givinostat]
D2.B10 mice [1]
  Reduction of fibrosis in DIA: about 33%
  Reduction of fibrosis in TA: about 22%
  Effect on fibrosis in GAS: No significant effect
  Efficacy on fibrosis in DIA: lost
D2.B10 mice [2]; [5]
  TA CSA: 300 μm^2
D2.B10 mice [2]; [6]
  GAS CSA: 600 μm^2
D2.B10 mice [2]; [7]
  GAS CSA: 450 μm^2
  TA CSA: 300 μm^2
D2.B10 mice [3]
  Nuclear centralization in TA: 19.8 ± 2.4%
  Nuclear centralization in GAS: 22.4 ± 2.1%
[4]; D2.B10 mice
  Body weight vs vehicle-treated mice: no significant differences

## C[C@]12C=CC(=O)C=C1CC[C@@H]1[C@@H]2C(=O)C[C@@]2(C)[C@H]1CC[C@]2(O)C(=O)CO [prednisone]
D2.B10 mice [1]; 1 mg/kg i.p. weekly
  Effect of steroid on fibrosis, summary: significantly reduced fibrosis in TA, GAS, and DIA
D2.B10 mice [1]
  Reduction of fibrosis in DIA: ~45%
  Reduction of fibrosis in TA: about 22%
  Effect on fibrosis in GAS: No significant effect
  Efficacy on fibrosis in DIA: lost
D2.B10 mice [1]; T8, vs vehicle
  Reduction of fibrosis in GAS: about 26%
D2.B10 mice [2]; [5]
  TA CSA: 300 μm^2
D2.B10 mice [2]; [6]
  GAS CSA: 600 μm^2
D2.B10 mice [2]; [7]
  GAS CSA: 300 μm^2
  TA CSA: 300 μm^2
D2.B10 mice [2]; D2.B10 muscles, 1 mg/kg i.p. weekly
  Effect of steroid on cross-sectional area and centralized nuclei: unable to affect cross-sectional area or the number of centralized nuclei
D2.B10 mice [3]
  Nuclear centralization in TA: 22.0 ± 2.4%
  Nuclear centralization in GAS: 21.6 ± 1.7%
[4]; mouse, in vivo
  Body weight vs vehicle-treated mice: no significant differences
